Test results published in publication PMC4436063 (mBio, 2015).

Biological target: CheS3
Experiment: microscale thermophoresis
Format: binding, Rhodospirillum centenum
Details: fluorescently labelled CheS3 (Blue-NHS, 100 nM); non-hydrolysable ATP analogue

Kd: 112 nM
Compound: Nc1ncnc2c1ncn2[C@@H]1O[C@H](COP(=O)(O)OP(=O)(O)OP(O)(O)=S)[C@@H](O)[C@H]1O [ATPγS]
